Experimental data taken from ChEMBL document CHEMBL1141793, “Antioxidant constituents of the aerial parts of Globularia alypum growing in Morocco” (J Nat Prod, 2005).

What follows are molecules tested on Radical scavenging activity (assay: Antioxidant activity assessed as DPPH free radical scavenging activity after 30 mins by spectrophotometric assay).

How did the IC50 turn out when `O=C1C[C@@H](c2ccc(O)c(O)c2)Oc2cc(O[C@@H]3O[C@H](CO)[C@@H](O)[C@H](O)[C@H]3O[C@@H]3O[C@H](CO)[C@@H](O)[C@H](O)[C@H]3O)cc(O)c21` was run?
Its IC50 is 12 µM.

How did the IC50 turn out when `O=c1cc(-c2ccc(O)c(O)c2)oc2cc(O[C@@H]3O[C@H](CO)[C@@H](O)[C@H](O)[C@H]3O[C@@H]3O[C@H](CO)[C@@H](O)[C@H](O)[C@H]3O)cc(O)c12` was run?
The IC50 was 12 µM.

How did the IC50 turn out when `C[C@@H]1O[C@@H](OC[C@H]2O[C@@H](OCCc3ccc(O)c(O)c3)[C@H](O)[C@@H](O)[C@@H]2OC(=O)/C=C/c2ccc(O)c(O)c2)[C@H](O)[C@H](O)[C@H]1O` [FORSYTHIASIDE] was run?
The IC50 was 21 µM.

For `O=c1cc(-c2ccc(O)c(O)c2)oc2cc(O[C@@H]3O[C@H](CO)[C@@H](O)[C@H](O[C@@H]4O[C@H](CO)[C@@H](O)[C@H](O)[C@H]4O)[C@H]3O)c(O)c(O)c12`, which IC50 is on record?
Its IC50 is 8 µM.

With `C[C@@H]1O[C@@H](O[C@@H]2[C@@H](O)[C@H](OCCc3ccc(O)c(O)c3)O[C@H](COC(=O)/C=C/c3ccc(O)c(O)c3)[C@H]2O)[C@H](O)[C@H](O)[C@H]1O` [ISOACTEOSIDE] as the molecule, how does the IC50 read?
The IC50 was 20 µM.

How did the IC50 turn out when `O=c1cc(-c2ccc(O)c(O)c2)oc2cc(O[C@@H]3O[C@H](CO)[C@@H](O)[C@H](O)[C@H]3O)c(O)c(O)c12` was run?
The IC50 was 11 µM.

With `C[C@@H]1O[C@@H](O[C@@H]2[C@@H](O)[C@H](OCCc3ccc(O)c(O)c3)O[C@H](CO)[C@H]2OC(=O)/C=C/c2ccc(O)c(O)c2)[C@H](O)[C@H](O)[C@H]1O` [ACETOSIDE] as the molecule, how does the IC50 read?
Its IC50 is 20 µM.

Which IC50 does the source give for `Cc1cc(C(C)(C)C)c(O)c(C(C)(C)C)c1` [BUTYLATED HYDROXYTOLUENE] here?
The IC50 was 40 µM.

For `O=C(/C=C/c1ccc(O)cc1)OC[C@H]1O[C@@H](OCCc2ccc(O)c(O)c2)[C@H](O)[C@@H](O)[C@@H]1O`, which IC50 is on record?
Its IC50 is 18 µM.
